Literature values as cited in patent US5891469A, “Solid Coprecipitates for enhanced bioavailability of lipophilic substances” (Pharmos Corporation, priority 1997, dated 1999).

Columns and labels:
[1] = for solubility in aqueous solutions: cannabinoids, depending upon the conditions (Garret and Hunt 1974)
[2] = like other lipophilic drugs

CCCCCc1cc(O)c2c(c1)OC(C)(C)[C@@H]1CC=C(C)C[C@@H]21 [Δ^6 -tetrahydrocannabinol (Δ^6 -THC), Δ^6 -tetrahydrocannabinol]
solubility in aqueous solutions [1]: a few micrograms/ml or less

CCCCCCC(C)(C)c1cc(O)c2c(c1)OC(C)(C)[C@H]1CC=C(CO)C[C@H]21 [Dexanabinol, (+)-(3S, 4S)-7-hydroxy-Δ^6-tetra hydrocannabinol-1,1-dimetylheptyl]
solubility in water ([1]; practically insoluble in water): less than 50 μg/ml | oral bioavailability [2]: poor oral bioavailability

C=C(C)[C@@H]1CCC(C)=C[C@H]1c1c(O)cc(CCCCC)cc1O [cannabidiol]
solubility in aqueous solutions [1]: a few micrograms/ml or less

COC1=C(OC)C(=O)C(C/C=C(\C)CC/C=C(\C)CC/C=C(\C)CC/C=C(\C)CC/C=C(\C)CC/C=C(\C)CC/C=C(\C)CC/C=C(\C)CC/C=C(\C)CCC=C(C)C)=C(C)C1=O [Coenzyme Q10, 2,3-dimethoxy-5-methyl-6-decaprenyl-1,4-benzoquinone]
solubility in water (in words) ([1]; due to long side chain of 10 isoprenoid units): practically insoluble in water

CCCCCc1cc(O)c2c(c1)OC(C)(C)[C@@H]1CCC(C)=C[C@@H]21 [tetrahydrocannabinol (THC), tetrahydrocannabinol]
maximal plasma levels (oral dosing of 20 mg THC in a sesame oil formulation (Wall et al. 1983)): around 10 ng/ml | human bioavailability following oral ingestion, mean estimates (oral, depending on the vehicle used): 6 to 12%

CCCCCc1cc(O)c2c(c1)OC(C)(C)c1ccc(C)cc1-2 [cannabinol]
solubility in aqueous solutions [1]: a few micrograms/ml or less

CCCCCc1cc(O)c2c(c1)OC(C)(C)[C@@H]1CCC(C)=C[C@@H]21 [Δ^1 -tetrahydrocannabinol (Δ^1 -THC), Δ^1 -tetrahydrocannabinol]
solubility in aqueous solutions [1]: a few micrograms/ml or less
